# Laboratory results: patent publication US11390661B2, “HCMV entry inhibitors” (priority 2016, dated 2022)
# Ends that are not written are not given here.
# B1: PDGFR-beta-Fc: recombinant Fc-fusion protein obtained from R&D (385-PR-100), comparison chimera (protein)
# chain: LVVTPPGPELVLNVSSTFVLTCSGSAPVVWERMSQEPPQEMAKAQDGTFSSVLTLTNLTGLDTGEYFCTHNDSRGLETDERKRLYIFVPDPTVGFLPNDAEELFIFLTEITEITIPCRVTDPQLVVTLHEKKGDVALPVPYDHQRGFSGIFEDRSYICKTTIGDREVDSDAYYVYRLQVSSINVSVNAVQTVVRQGENITLMCIVIGNEVVNFEWTYPRKESGRLVEPVTDFLLDMPYHIRSILHIPSAELEDSGTYTCNVTESVNDHQDEKAINITVVESGYVRLLGEVGTLQFAELHRSRTLQVVFEAYPPPTVLWFKDNRTLGDSSAGEIALSTRNVSETRYVSELTLVRVKVAEAGHYTMRAFHEDAEVQLSFQLQINVPVRVLELSESHPDSGEQTVRCRGRGMPQPNIIWSACRDLKRCPRELPPTLLGNSSEEESQLETNVTYWEEEQEFEVVSTLRLQHVDRPLSVRCTLRNAVGQDTQEVIVVPHSLPF
# modifications: left off: a dimerising Fc or GST
# notes: recombinant Fc-fusion protein obtained from R&D (385-PR-100), comparison chimera
# Legend:
# HCMV strain TB40/E [1] = assay type: cell-based, Human cytomegalovirus; conditions: HFFs
# Protocol: For screening the PDGFRα peptides for their neutralizing capacity a recently developed Gaussia-Luciferase-Assay was utilized (10). The Gaussia luciferase is secreted into the cell culture supernatants, therefore it is not necessary to fix the cells and instead a sample of the Gaussia containing supernatant is taken and mixed with the substrate coelenterazine (PjK) at a final concentration of 0.2 μg/ml. The resulting light emission was detected at 495 nm. For all obtained values background signals were subtracted and neutralization efficiency was determined relative to the control samples which contained only virus, no peptide.
# Cell free preparations of strain TB40/E were pre-incubated with the individual peptides at concentrations reaching from 0.05-50 nmol/ml for 2 h and the mixtures were then incubated with HFF cultures in a 96-well format. The various peptides differed greatly regarding their inhibitory potential with a region between aa120 and aa280 being absolutely ineffective and the peptides surrounding this region having the highest anti-HCMV effect (FIG. 9).
# HCMV particles = test: Binding of chimeric receptors (Fc-fusion proteins) to HCMV particles; design: species or system Human cytomegalovirus; conditions: particles pre-incubated with Fc-fusion protein, attached to cells on ice
# Protocol: To assess the binding of Fc-Proteins to virus particles, HFFs were seeded at a density of 40,000 cells per well on IBIDI plates 1 day prior to infection. Virus preparations were pre-incubated with Fc-fusion proteins at a final concentration of 500 ng/ml for 2 h at 37° C. The virus/Fc-protein mixtures were incubated with the cells for 1.5 h on ice. Before fixation with 80% acetone, the cells were washed once with MEM. For staining of viral particles mouse hybridoma recognizing the abundant viral protein pp150 (generously provided by W. Britt, Sanchez 2000) used.
# The inventors tested this by staining of adsorbed virus particles with the Fc-fusion proteins. […] Virus particles were stained for the capsid protein pp150 and bound Fc-fusion proteins.
# The inventors analyzed the mode of inhibition by PDGFR-alpha-Fc. For this, the binding of different concentrations of the fusion protein was quantified by assessing the particle intensities after staining with anti-human antibody (FIG. 5). […] (FIGS. 4 and 5).
# HCMV strain TB40/E [2] = test: Inhibition of infection of fibroblasts (HFFs), IE antigen immunofluorescence; assay type: cell-based, Human cytomegalovirus; conditions: increasing concentrations, pre-incubated 2 h
# Protocol: For testing the inhibitory effect of antivirals or fusion proteins on HCMV, the respective inhibitors were diluted in MEM and mixed with infectious supernatants, the mixtures were incubated for 2 h at 37° C. before addition to the cells. For fibroblast infection the virus-inhibitor mixture was incubated on the cells for about 24 h. If endothelial cells were included in the experiment, all cells were supplied with their respective maintenance media after 2 h, and further incubated for 22 h.
# Infection efficiencies were determined by immunofluorescence staining for viral proteins. For fixation and permeabilization the cells were incubated with 80% acetone for 5 min. For HCMV infected cells the immediate early proteins pUL122/123 were detected with a mouse monoclonal (clone E13, Argene) and visualized using a Cy3 conjugated goat anti-mouse secondary antibody (Jackson Immuno Research). HSV infected cultures were stained 6 h post infection for ICP0 using a mouse monoclonal (clone 11060, Santa Cruz) and goat anti-mouse AF488 (life technologies). DAPI was used to locate nuclei. Infection rates were determined by counting the number of cell nuclei positive for the respective viral protein, as well as the total number of nuclei per image. For each condition three images were evaluated.
# To test this, the inventors pre-incubated cell free preparations of HCMV strain TB40/E with variable concentrations of soluble PDGFR-alpha-Fc chimeras for 2 h before adding them to HFFs and HECs. After 2 h the virus was removed and replaced with the appropriate cell culture medium for an overnight incubation. Cultures were then fixed, and the fraction of infected cells was determined by indirect immunofluorescence staining of viral IE antigens.
# Cell free preparations of TB40/E were pre-incubated with increasing concentrations of the various Fc chimeras for 2 h. HFFs were then incubated with the mixtures for 2 h followed by a medium exchange and an overnight incubation.
Molecule,inhibition at 10 nmol/ml (HCMV strain TB40/E [1]; 10 nmol/ml),"EC50 (HCMV strain TB40/E [1]; pre-incubated 2 h, read-out: EC50 of inhibition of HCMV infection by peptide)",binding of Fc-fusion protein to virus particles (anti-human antibody staining) (HCMV particles),inhibitory potential of Fc chimeras on HCMV infection of HFFs (HCMV strain TB40/E [2])
GRHIYIYVPDPDVAFVPLGMTDYLVIVEDDDSAIIPCRTT [peptide between aa90 and aa130],almost complete inhibition,2000 nM,,
B1,,,visualized only those particles that were pre-treated with PDGFR-alpha-Fc,neither PDGFR-beta-Fc nor EGFR-Fc had an effect
